Experimental data published in patent US20060111308A1, “Methods and compositions for therapeutic treatment” (priority 2004, published 2006).
Read-outs that look alike come from different tables or passages of the source.

Key:
[1] = test system: adult subjects with chronic pain; assay: Human study of the effects of oral quercetin (Q) and analgesics on sedation, concentration and pain; type: in vivo
Method: An empiric trial on the effects of oral quercetin (Q) on sedation, concentration, and pain was conducted. Inclusion criteria included ongoing pain of at least 4/10 on the Likert scale, poor tolerance of current analgesic regimen (complaints of sedation, dizziness, inability to focus), and willingness to complete daily diaries.
Approximately 16 adult subjects with chronic pain were screened and 9 subjects were admitted to the trial. Their pain disorders included peripheral neuropathy (2), facial pain (2), cervical radiculopathy (2), lumbar spine disease (3). Their pre-existing medications included short acting opioids (Vicodin TID, Tramadol 50 mg Q4-6), high dose, long acting opioids (OxyContin 240 mg, Methadone 400 mg), Gabapentin (900 mg and 2700 mg), Ativan, Flexeril, and Soma 350 mg. Seven of the subjects were using at least two analgesic medications. Two subjects were using no current medications because of prior histories of sedation and dizziness during opioid trials.
Q (Sigma) 500 mg per gel capsule was compounded and supplied to all subjects by overnight mail. Subjects were instructed to complete daily diaries for 7 days and continue their baseline medications and regular activities. On approximately the 7th day, they were asked to begin twice daily dosing of 2 Q (1000 mg) capsules (total daily dose of Q, 2000 mg). Diaries were completed for 7 days. Individual diaries included rating sleep interference, focus, pain now, and worst pain over the prior 24 hours. Subjects were instructed that concomitant pain medications should not be altered without speaking with the investigator. Subjects were advised that they would be contacted by telephone every day or every other day to assess progress in the trial and any side effects associated with the addition of Q. At the end of the trial, patients were interviewed. They were asked to rate their satisfaction with the study medication (−2−+2) and its ability to modulate the CNS effects of their pain medications.

[2] = in vivo; cited from earlier work
[3] = test system: mdr1a (P-gP) knockout (−/−) mouse; details: cited from earlier work; for sensitivity to fetal cleft palate: same doses as knockout mice
[4] = after 7 days of co-administration of Q (2000 mg daily, oral) and analgesics, FIG. 16
[5] = scale of −2 to 2, patients on opiate or MSD and Q

SMILES | mean ratings for concentration improved [1, 4] | mean ratings for sleep improved [1, 4] | mean ratings for worst pain improved [1, 4] | mean ratings for pain now decreased ([1]; after 7 days of co-administration of Q (2000 mg daily, oral) and analgesics, all patients taking analgesic medications and Q, FIG. 16) | worst pain in the last 24 hrs (NPRS) ([1]; all patients after taking Q, 1 no pain, 10 worst, FIG. 7) | concentration rating (short term memory, focus, wakefulness) ([1]; all patients after taking Q, 1 perfect concentration, 10 worst, FIG. 6) | pain at the time the patients were called (pain now) ([1]; all patients after taking Q, FIG. 8) | sleep rating ([1]; all patients after taking Q, scale to 10 as worst, FIG. 5) | global assessment on the scale of −2 to 2 ([1]; all patients on opiate or MSD (membrane stabilizing drug) and modulator (Q), FIG. 15) | central withdrawal ([1]; opioid users taking Q) | patients reporting 2 in global assessment [1, 5] | patients reporting −2 in global assessment [1, 5] | pain on the scale from 1-10 (worst pain in last 24 hrs, pain at time of call) ([1]; two patients not on baseline meds, poor tolerance of systemic medications, FIG. 13 and 14) | serum half-life [2] [h] | sensitivity to fetal cleft palate ([3]; heterozygous (+/−) mice) | sensitivity to fetal cleft palate ([3]; homozygous (+/+) mice) | incidence of fetal cleft palate ([3]; mdr1a knockout mice) [%]
O=c1c(O)c(-c2ccc(O)c(O)c2)oc2cc(O)cc(O)c12 [Q, quercetin] | over 60% | more than 25% | more than 25% | more than 70% | overall improvement | overall improvement | overall improvement | overall improvement | overall improvement | noted in 3 | three | none | brought the pain down | 19 to 25 | – | – | –
CC[C@H](C)[C@H]1O[C@]2(C=C[C@@H]1C)C[C@@H]1C[C@@H](C/C=C(\C)[C@@H](O[C@H]3C[C@H](OC)[C@@H](O[C@H]4C[C@H](OC)[C@@H](O)[C@H](C)O4)[C@H](C)O3)[C@@H](C)/C=C/C=C3\CO[C@@H]4[C@H](O)C(C)=C[C@@H](C(=O)O1)[C@]34O)O2 [avermectin] | – | – | – | – | – | – | – | – | – | – | – | – | – | – | less sensitive | insensitive | 100
